# From US8283311B2, “Peptide-containing food intake regulator” (Maruha Nichiro Foods, Inc., priority 2008, dated 2012)
# Ends that are not written are not given here.
# Tested on: Male SD rats
# Experiment: Measurement of food intake after intravenous administration
# Type: in vivo
# Conditions: test conditions not stated for this peptide
# Protocol: Male SD rats (Sprague-Dawley, body weight of 275±25 g) were housed and fed in 45×23×15-cm APECR cages, five rats per cage. The rats were acclimated for 1 week or more on a 12-h light/12-h dark cycle at a room temperature of 22 to 24° C. and a humidity of 60 to 80% with free access to food and water before the test. The rats used for the test were fasted for 12 hours overnight before initiation of the test. After fasting, the samples to be tested as the food intake regulator were dissolved in saline and the dissolved test samples were intravenously given (150 μg/body) to the rats, respectively, in the treatment group and, then, their food intakes were measured 1, 2, 4, and […] administration. In contrast, in the control group, saline was intravenously given and their food intakes were measured in the same way.
sequence,measurement,value
GRVYRPCWQV [SEQ ID NO: 34],food intake regulation activity,no food intake regulation activity
